From US20230210853A1 (Halia Therapeutics, Inc., priority 2020, published 2023)

biological target: T1, full-length recombinant human NEK7 (Homo sapiens, UniProt Q8TDX7); experiment: NEK7 enzymatic assay ([33P]-ATP, casein substrate); format: biochemical; conditions: Table 2a; recombinant human NEK7, casein substrate
T1 construct: full-length recombinant human NEK7; GST (N); purchased SignalChem N09-10G; host or cells: Sf9 insect cells (baculovirus)
Description: In some embodiments, the IC50 of the compounds of Structure (I), (Ia), (Ib), (Ic), (Id), (Ie), or (If) to inhibit NEK7 was determined by the concentration of the compound required to inhibit 50% of the activity of the NEK kinase.
(§1) Casein substrate (from bovine milk, hydrolyzed and partially dephosphorylated mixture of α, β and κ caseins, obtained from Sigma Aldrich, catalogue #C4765, diluted in distilled water to a final concentration of 1 mg/mL) and full-length recombinant human NEK7 (expressed by baculovirus in Sf9 insect cells using a N-terminal GST tag, obtained from SignalChem, catalogue #N09-10G, 0.1 μg/μL) were mixed in assay buffer (20 mM Hepes pH 7.5, 10 mM MgCl2, 1 mM EGTA, 0.02% Brij35, 0.02 mg/ml BSA, 0.1 mM Na3 VO4, 2 mM DTT, 1% DMSO). Compounds of interest (serial 3-fold dilution in DMSO from 10 μM to 0.5 nM) or vehicle (1% DMSO) were dispensed into the kinase reaction mixture by Acoustic technology (Echo550, nanoliter range). After incubation at room temperature for 20 minutes, the kinase reaction was initiated by addition of [^33P]-ATP (specific activity 10 μCi/μl) and the mixture was incubated at room temperature for 2 hours. The reaction was then stopped by spotting the reaction mixture on strips of phosphocellulose P81 paper. Following washing, the radioactivity of the P81 paper was measured and kinase activity data were expressed as the percent remaining kinase activity in test samples compared to vehicle reactions. IC50 values and curve fits were obtained using Prism (GraphPad Software).
as §1, with “μg/L)” for “μg/μL)”, “Na3VO4,” for “Na3 VO4,”, “(Echo550;” for “(Echo550,”

T1 sequence (Q8TDX7 whole entry): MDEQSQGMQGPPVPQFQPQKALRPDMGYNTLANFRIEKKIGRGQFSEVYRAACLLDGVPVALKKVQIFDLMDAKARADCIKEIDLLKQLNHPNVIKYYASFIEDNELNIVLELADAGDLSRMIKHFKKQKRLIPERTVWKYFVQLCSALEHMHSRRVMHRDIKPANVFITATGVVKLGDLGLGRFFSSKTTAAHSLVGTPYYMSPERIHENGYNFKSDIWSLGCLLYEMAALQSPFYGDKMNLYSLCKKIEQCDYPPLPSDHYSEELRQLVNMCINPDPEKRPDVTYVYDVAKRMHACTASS

IC50 [nM] | SMILES
< 150 | CC(C)(C)c1cc(NC(=O)Nc2ccc(-c3nn(C4COC4)c4ncnc(N)c34)cc2F)no1 [Ia-23, 1-(4-(4-amino-1-(oxetan-3-yl)-1H-pyrazolo[3,4-d]pyrimidin-3-yl)-2-fluorophenyl)-3-(5-(tert-butyl)isoxazol-3-yl)urea]
< 150 | CC(C)(C)c1cc(NC(=O)Nc2ccc(-c3nn(C4CCOC4)c4ncnc(N)c34)cc2F)on1 (stereo not shown) [Ia-24, 1-(4-(4-amino-1-(tetrahydrofuran-3-yl)-1H-pyrazolo[3,4-d]pyrimidin-3-yl)-2-fluorophenyl)-3-(3-(tert-butyl)isoxazol-5-yl)urea]
151 to 300 | C=CCn1nc(-c2ccc(NC(=O)Nc3cc(C(C)(C)C)on3)c(F)c2)c2c(N)ncnc21 [Ia-26]
501 to 1500 | CC(C)(F)c1cc(NC(=O)Nc2ccc(-c3nn(C4CC4)c4ncnc(N)c34)cc2F)on1 [Ia-27, 1-(4-(4-amino-1-cyclopropyl-1H-pyrazolo[3,4-d]pyrimidin-3-yl)-2-fluorophenyl)-3-(3-(2-fluoropropan-2-yl)isoxazol-5-yl)urea]
< 150 | Cn1nc(-c2ccc(NC(=O)Nc3cc(C(C)(C)C)no3)c(F)c2)c2c(N)ncnc21 [Ia-29, 1-(4-(4-amino-1-methyl-1H-pyrazolo[3,4-d]pyrimidin-3-yl)-2-fluorophenyl)-3-(3-(tert-butyl)isoxazol-5-yl)urea]
501 to 1500 | CC(C)(C)c1cc(NC(=O)Nc2ccc(-c3nn(C4CC4)c4ccnc(N)c34)cc2)on1 [Ia-31, 1-(4-(4-amino-1-cyclopropyl-1H-pyrazolo[4,3-c]pyridin-3-yl)phenyl)-3-(3-(tert-butyl)isoxazol-5-yl)urea]
501 to 1500 | CC(C)(C)c1cc(NC(=O)Nc2ccc(-c3nn(C4CC4)c4ncnc(N)c34)cc2F)sn1 [Ia-35, 1-(4-(4-amino-1-cyclopropyl-1H-pyrazolo[3,4-d]pyrimidin-3-yl)-2-fluorophenyl)-3-(3-(tert-butyl)isothiazol-5-yl)urea]
501 to 1500 | CC(C)(C)c1nnc(NC(=O)Nc2ccc(-c3nn(C4CC4)c4ncnc(N)c34)cc2F)o1 [Ia-36, 1-(4-(4-amino-1-cyclopropyl-1H-pyrazolo[3,4-d]pyrimidin-3-yl)-2-fluorophenyl)-3-(5-(tert-butyl)-1,3,4-oxadiazol-2-yl)urea]
151 to 300 | Nc1ncnc2c1c(-c1ccc(NC(=O)Nc3cc(C(F)(F)F)no3)c(F)c1)nn2C1CC1 [Ia-39, 1-(4-(4-amino-1-cyclopropyl-1H-pyrazolo[3,4-d]pyrimidin-3-yl)-2-fluorophenyl)-3-(3-(trifluoromethyl)isoxazol-5-yl)urea]
151 to 300 | CCC(CC)c1cc(NC(=O)Nc2ccc(-c3nn(C4CC4)c4ncnc(N)c34)cc2F)on1 [Ia-40, 1-(4-(4-amino-1-cyclopropyl-1H-pyrazolo[3,4-d]pyrimidin-3-yl)-2-fluorophenyl)-3-(3-(pentan-3-yl)isoxazol-5-yl)urea]
301 to 500 | CC(C)c1cc(NC(=O)Nc2ccc(-c3nn(C4CC4)c4ncnc(N)c34)cc2F)on1 [Ia-41, 1-(4-(4-amino-1-cyclopropyl-1H-pyrazolo[3,4-d]pyrimidin-3-yl)-2-fluorophenyl)-3-(3-isopropylisoxazo1-5-yl)urea]
< 150 | CCc1cc(NC(=O)Nc2ccc(-c3nn(C4CC4)c4ncnc(N)c34)cc2F)on1 [Ia-42, 1-(4-(4-amino-1-cyclopropyl-1H-pyrazolo[3,4-d]pyrimidin-3-yl)-2-fluorophenyl)-3-(3-ethylisoxazol-5-yl)urea]
151 to 300 | CCC(C)c1cc(NC(=O)Nc2ccc(-c3nn(C4CC4)c4ncnc(N)c34)cc2F)on1 (stereo not shown) [Ia-43, 1-(4-(4-amino-1-cyclopropyl-1H-pyrazolo[3,4-d]pyrimidin-3-yl)-2-fluorophenyl)-3-(3-(sec-butyl)isoxazol-5-yl)urea]
151 to 300 | CC1(c2cc(NC(=O)Nc3ccc(-c4nn(C5CC5)c5ncnc(N)c45)cc3F)on2)CCC1 [Ia-44, 1-(4-(4-amino-1-cyclopropyl-1H-pyrazolo[3,4-d]pyrimidin-3-yl)-2-fluorophenyl)-3-(3-(1-methylcyclobutyl)isoxazol-5-yl)urea]
301 to 500 | Cc1cc(-c2nn(C3CC3)c3ncnc(N)c23)ccc1NC(=O)Nc1cc(C2(C(F)(F)F)CC2)no1 [Ia-48, 1-(4-(4-amino-1-cyclopropyl-1H-pyrazolo[3,4-d]pyrimidin-3-yl)-2-methylphenyl)-3-(3-(1-(trifluoromethyl)cyclopropyl)isoxazol-5-yl)urea]
151 to 300 | Nc1ncnc2c1c(-c1ccc(NC(=O)Nc3cc(C4(C(F)(F)F)CC4)no3)nc1)nn2C1COC1 [Ia-61]

same assay, conditions: Table 2b; recombinant human NEK7, casein substrate

IC50 [nM] | SMILES
> 1500 | CC(C)(C)c1cc(NC(=O)Nc2ccc(Oc3ccnc4[nH]ccc34)cc2F)n(-c2ccccc2)n1 [Ib-1, 1-(4-((1H-pyrrolo[2,3-b]pyridin-4-yl)oxy)-2-fluorophenyl)-3-(3-(tert-butyl)-1-phenyl-1H-pyrazol-5-yl)urea]
> 1500 | CC(C)(C)c1cc(NC(=O)Nc2ccc(Oc3ccnc4[nH]ccc34)c(C(F)(F)F)c2)n(-c2ccccc2)n1 [Ib-2, 1-(4-((1H-pyrrolo[2,3-]pyridin-4-yl)oxy)-3-(TRIFLUOROMETHYL)phenyl)-3-(3-(tert-butyl)-1-phenyl-1H-pyrazol-5-yl)urea]
> 1500 | CC(C)(C)c1cc(NC(=O)Nc2ccc(Oc3ncnc4[nH]ccc34)cc2F)n(-c2ccccc2)n1 [Ib-3, 1-(4-((7H-pyrrolo[2,3-d]pyrimidin-4-yl)oxy)-2-fluorophenyl)-3-(3-(tert-butyl)-1-phenyl-1H-pyrazol-5-yl)urea]
501 to 1500 | CC(C)(C)c1cc(NC(=O)Nc2ccc(Oc3ccnc4[nH]cc(Cl)c34)cc2F)n(-c2ccccc2)n1 [Ib-6, 1-(3-(tert-butyl)-1-phenyl-1H-pyrazol-5-yl)-3-(4-((3-chloro-1H-pyrrolo[2,3-b]pyridin-4-yl)oxy)-2-fluorophenyl)urea]
501 to 1500 | Cn1nc(C(C)(C)C)cc1NC(=O)Nc1ccc(Oc2ccnc3[nH]cc(Cl)c23)cc1F [Ib-7, 1-(3-(tert-butyl)-1-methyl-1H-pyrazol-5-yl)-3-(4-((3-chloro-1H-pyrrolo[2,3-b]pyridin-4-yl)oxy)-2-fluorophenyl)urea]
> 1500 | Cc1cc(NC(=O)Nc2ccc(Oc3ccnc4[nH]cc(Cl)c34)cc2F)n(-c2ccc(C#N)cc2)n1 [Ib-9, 1-(4-((3-chloro-1H-pyrrolo[2,3-b]pyridin-4-yl)oxy)-2-fluorophenyl)-3-(1-(4-cyanophenyl)-3-methyl-1H-pyrazol-5-yl)urea]
> 1500 | Cc1cc(NC(=O)Nc2ccc(Oc3ccnc4[nH]cc(Cl)c34)cc2F)n(-c2ccccc2)n1 [Ib-10, 1-(4-((3-chloro-1-pyrrolo[2,3-b]pyridin-4-yl)oxy)-2-fluorophenyl)-3-(3-methyl-1-phenyl-1H-pyrazol-5-yl)urea]
501 to 1500 | O=C(Nc1ccc(Oc2ccnc3[nH]cc(Cl)c23)cc1F)Nc1cc(C2CC2)nn1-c1ccccc1 [Ib-11, 1-(4-((3-chloro-1H-pyrrolo[2,3-b]pyridin-4-yl)oxy)-2-fluorophenyl)-3-(3-cyclopropyl-1-phenyl-1H-pyrazol-5-yl)urea]
> 1500 | CC(C)(C)c1cc(NC(=O)Nc2ccc(Oc3ncnc4[nH]cc(Cl)c34)cc2F)n(-c2ccccc2)n1 [Ib-13, 1-(3-(tert-butyl)-1-phenyl-1H-pyrazol-5-yl)-3-(4-((5-chloro-7H-pyrrolo[2,3-b]pyrimidin-4-yl)oxy)-2-fluorophenyl)urea]
> 1500 | CC(C)(C)c1cc(NC(=O)Nc2cc(F)c(Oc3ccnc4[nH]cc(Cl)c34)cc2F)n(-c2ccccc2)n1 [Ib-15]
> 1500 | CC(C)(C)c1cc(NC(=O)NC2CCC(Oc3ccnc4[nH]ccc34)CC2)n(-c2ccccc2)n1 (stereo not shown) [Ib-16, 1-(4-((1H-pyrrolo[2,3-b]pyridin-4-yl)oxy)cyclohexyl)-3-(3-(tert-butyl)-1-phenyl-1H-pyrazol-5-yl)urea]
> 1500 | O=C(Nc1ccc(Oc2ccnc3[nH]cc(Cl)c23)cc1F)Nc1cc(C2(C(F)(F)F)CC2)nn1-c1ccccc1 [Ib-17, 1-(4-((3-chloro-1H-pyrrolo[2,3-b]pyridin-4-yl)oxy)-2-fluorophenyl)-3-(1-phenyl-3-(1-(trifluoromethyl)cyclopropyl)-1H-pyrazol-5-yl)urea]
